The results in this text go back to ChEMBL document CHEMBL1133042, “Convergent synthesis of ribonuclease L-active 2',5'-oligoadenylate-peptide nucleic acids” (Bioorg Med Chem Lett, 2000).

Assay [1] has as its target T1, 2-5A-dependent ribonuclease (Homo sapiens) (UniProt Q05823).
T1 sequence (whole entry): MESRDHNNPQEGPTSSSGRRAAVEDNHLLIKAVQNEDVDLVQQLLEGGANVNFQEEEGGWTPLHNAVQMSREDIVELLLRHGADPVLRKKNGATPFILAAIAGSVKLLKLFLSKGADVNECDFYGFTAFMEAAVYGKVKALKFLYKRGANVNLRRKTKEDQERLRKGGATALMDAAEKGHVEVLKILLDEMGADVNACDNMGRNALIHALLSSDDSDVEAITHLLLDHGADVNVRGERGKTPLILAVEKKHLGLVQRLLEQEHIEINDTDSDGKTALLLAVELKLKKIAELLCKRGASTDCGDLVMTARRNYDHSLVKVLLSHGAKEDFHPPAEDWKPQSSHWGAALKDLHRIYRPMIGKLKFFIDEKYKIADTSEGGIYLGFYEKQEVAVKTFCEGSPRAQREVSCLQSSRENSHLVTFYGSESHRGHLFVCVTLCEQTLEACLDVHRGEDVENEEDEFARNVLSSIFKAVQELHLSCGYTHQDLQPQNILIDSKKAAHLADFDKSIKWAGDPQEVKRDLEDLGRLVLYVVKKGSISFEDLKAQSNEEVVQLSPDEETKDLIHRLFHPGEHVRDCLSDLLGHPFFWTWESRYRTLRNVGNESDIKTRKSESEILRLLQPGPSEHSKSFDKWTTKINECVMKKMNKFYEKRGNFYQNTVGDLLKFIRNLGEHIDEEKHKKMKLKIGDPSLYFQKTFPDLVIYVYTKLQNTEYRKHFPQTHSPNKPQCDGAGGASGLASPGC
The assay is described as follows: Relative ability of compound to activate Ribonuclease L to cleave poly(U)p[32P]Cp, compared to that of 2-5A standard (Crel=1); No cleavage detected.

Assay [2] deals with T1, 2-5A-dependent ribonuclease (Homo sapiens). The assay is described as follows: Relative binding affinity of compound to human recombinant Ribonuclease L, compared to that of 2-5A standard (Crel=1); No binding detected.
For assay [3] the target is unchanged. The assay is described as follows: Relative ability of compound to activate Ribonuclease L to cleave poly(U)p[32P]Cp, compared to that of 2-5A standard (Crel=1).
For assay [4] the target is unchanged. The assay is described as follows: Relative binding affinity of compound to human recombinant Ribonuclease L, compared to that of 2-5A standard (Crel=1).

For the compound `Cc1cn(CC(=O)N(CCNC(=O)CN(CCNC(=O)CN(CCNC(=O)CN(CCNC(=O)COCCOCCNC(=O)COCCOCCN2C[C@@H](COP(=O)(O)O[C@@H]3[C@H](O)[C@@H](COP(=O)(O)O)O[C@H]3n3cnc4c(N)ncnc43)O[C@@H](n3cnc4c(N)ncnc43)C2)C(=O)Cn2cc(C)c(=O)[nH]c2=O)C(=O)Cn2cc(C)c(=O)[nH]c2=O)C(=O)Cn2cc(C)c(=O)[nH]c2=O)CC(N)=O)c(=O)[nH]c1=O`, the values for the Crel entry in assay [1] and in assay [2] were “No cleavage” and “No binding”, respectively.

`CO[C@H]1[C@@H](OP(=O)(O)OC[C@H]2O[C@@H](n3cnc4c(N)ncnc43)[C@H](OP(=O)(O)OC[C@@H]3CN(CCOCCOCC(=O)NCCOCCOCC(=O)NCCN(CC(=O)NCCN(CC(=O)NCCN(CC(=O)NCCN(CC(N)=O)C(=O)Cn4cc(C)c(=O)[nH]c4=O)C(=O)Cn4cc(C)c(=O)[nH]c4=O)C(=O)Cn4cc(C)c(=O)[nH]c4=O)C(=O)Cn4cc(C)c(=O)[nH]c4=O)C[C@H](n4cnc5c(N)ncnc54)O3)[C@@H]2O)[C@H](n2cnc3c(N)ncnc32)O[C@@H]1COP(=O)(O)O`: the Crel in assay [3] came out at 47.6; in assay [4], 0.7.

For `CO[C@H]1[C@@H](OP(=O)(O)OC[C@H]2O[C@@H](n3cnc4c(N)ncnc43)[C@H](OP(=O)(O)OC[C@H]3O[C@@H](n4cnc5c(N)ncnc54)[C@H](OP(=O)(O)OC[C@H]4O[C@@H](n5cnc6c(N)ncnc65)[C@H](OP(=O)(O)O[C@@H]5CN(CCOCCOCC(=O)NCCOCCOCC(=O)NCCN(CC(=O)NCCN(CC(=O)NCCN(CC(=O)NCCN(CC(N)=O)C(=O)Cn6cc(C)c(=O)[nH]c6=O)C(=O)Cn6cc(C)c(=O)[nH]c6=O)C(=O)Cn6cc(C)c(=O)[nH]c6=O)C(=O)Cn6cc(C)c(=O)[nH]c6=O)C[C@H](n6cnc7c(N)ncnc76)O5)[C@@H]4O)[C@@H]3OC)[C@@H]2O)[C@H](n2cnc3c(N)ncnc32)O[C@@H]1COP(=O)(O)O`, the results for the Crel in assay [3] and in assay [4] were 14 and 1, respectively.

`Cc1cn(CC(=O)N(CCNC(=O)CN(CCNC(=O)CN(CCNC(=O)CN(CCNC(=O)COCCOCCNC(=O)COCCOCCN2CC(COP(=O)(O)O)OC(n3cnc4c(N)ncnc43)C2)C(=O)Cn2cc(C)c(=O)[nH]c2=O)C(=O)Cn2cc(C)c(=O)[nH]c2=O)C(=O)Cn2cc(C)c(=O)[nH]c2=O)CC(N)=O)c(=O)[nH]c1=O` (stereo not given): the Crel result in assay [1] was “No cleavage”; in assay [2] it was “No binding”.

For `Nc1ncnc2c1ncn2[C@@H]1O[C@H](COP(=O)(O)O[C@@H]2[C@H](O)[C@@H](COP(=O)(O)O[C@@H]3[C@H](O)[C@@H](COP(=O)(O)O)O[C@H]3n3cnc4c(N)ncnc43)O[C@H]2n2cnc3c(N)ncnc32)[C@@H](O)[C@H]1O`, the Crel in assay [3] and in assay [4] was 1 each time.
